Consider four compounds from patent publication US5770617A, “Terbenzimidazoles useful as antifungal agents” (Rutgers, The State University of New Jersey, priority 1997, dated 1998).

“Also recorded” adds a separate entry of the source.

The experiment concerns the target T1, Aspergillus topoisomerase I (Aspergillus nidulans, UniProt Q5BGS7).
T1 construct: about 105 kDa by phosphate transfer
T1 sequence (Q5BGS7 1-871): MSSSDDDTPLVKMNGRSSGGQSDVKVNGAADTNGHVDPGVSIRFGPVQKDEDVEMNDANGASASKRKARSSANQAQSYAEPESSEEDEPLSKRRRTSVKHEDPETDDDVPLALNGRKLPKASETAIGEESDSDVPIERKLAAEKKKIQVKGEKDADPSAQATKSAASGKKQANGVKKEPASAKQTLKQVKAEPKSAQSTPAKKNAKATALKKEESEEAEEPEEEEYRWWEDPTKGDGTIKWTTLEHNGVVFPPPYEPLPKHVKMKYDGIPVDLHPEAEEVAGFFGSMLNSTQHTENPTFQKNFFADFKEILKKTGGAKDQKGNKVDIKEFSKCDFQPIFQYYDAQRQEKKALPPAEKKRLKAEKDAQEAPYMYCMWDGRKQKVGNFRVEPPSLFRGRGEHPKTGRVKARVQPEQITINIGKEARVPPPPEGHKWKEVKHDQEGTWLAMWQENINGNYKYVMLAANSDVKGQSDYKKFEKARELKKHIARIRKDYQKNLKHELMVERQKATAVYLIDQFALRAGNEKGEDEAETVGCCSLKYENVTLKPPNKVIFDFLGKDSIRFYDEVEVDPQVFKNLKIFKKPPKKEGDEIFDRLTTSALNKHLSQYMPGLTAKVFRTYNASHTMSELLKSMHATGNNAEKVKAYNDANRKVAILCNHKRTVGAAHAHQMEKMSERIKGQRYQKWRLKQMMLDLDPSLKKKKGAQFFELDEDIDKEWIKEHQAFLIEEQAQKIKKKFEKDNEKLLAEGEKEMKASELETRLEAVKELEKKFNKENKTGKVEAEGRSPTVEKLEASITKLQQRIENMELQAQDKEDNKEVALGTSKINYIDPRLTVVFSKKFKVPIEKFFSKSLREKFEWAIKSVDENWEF
The experiment is described as follows: Topoisomerase I cleavage assay, Aspergillus enzyme. The class given is biochemical. The note with it: for inhibition (poisoning) of Aspergillus topoisomerase I, in words: DNA cleavage assay; for sensitivity of Aspergillus versus human topoisomerase I: cleavage assay, Aspergillus 60 units/reaction, human 150 units/reaction; for concentration at which extensive DNA cleavage was observed: DNA cleavage with Aspergillus topoisomerase I. The protocol:
Two liters of YG medium (0.5% yeast extract and 2% glucose) were inoculated with approximately 5×10^8 conidia/ml. After 16 hours of growth at 37° C., the mycelia were collected, washed with Buffer I (50 mM Tris-HCl, pH 7.7, 1 mM EDTA, 1 mM EGTA, 10% glycerol, 1 mM phenylmethylsulfonyl fluoride and 1 mM 2-mercaptoethanol), and quickly chilled in liquid nitrogen. The frozen mycelia (approximately 20 grams) were ground to powder and resuspended in 300 ml of Buffer I. The lysate was centrifuged at 10K rpm in a Sorval HB3 Rotor for 15 minutes to remove cell debris. The supernatant was made 6% in polyethylene glycol (v/v) and 1M NaCl. After one hour on ice with gentle stirring, the solution was centrifuged at 14K rpm in a Sorvall Rotor for 30 minutes to remove nucleic acids.
Subsequent steps in purification were the same as described previously for purification of recombinant human DNA topoisomerase I (B. Gatto et al., Cancer Res., 56, 2795 (1996)). Briefly, the supernatant was chromatographed directly onto a hydroxyapatite Bio-gel HTP (BioRad Laboratories, Richmond, Calif.) column. Fractions containing relaxation activity were pooled, diluted and then loaded onto a BioRex70 column (BioRad Laboratories, Richmond, Calif.). The column was developed with a linear gradient from 0.2 to 1M KCl. The peak fractions were pooled and dialyzed overnight at 4° C. against 30 mM potassium phosphate, 50% glycerol (v/v), 0.5 mM EDTA, and 1 mM DTT. Recombinant human topoisomerase I was purified from Escherichia coli BL21 (DE3) harboring PET1B as described previously (Gatto et al., Cancer Res., 56, 2795 (1996)).
DNA topoisomerase I cleavage assays were performed as described by Y.-H. Hsiang et al., J. Biol. Chem., 260, 14873 (1985). YEpG DNA was linearized with BamHI and then 3 '-end-labeled with Klenow polymerase and α[-^32 P]dCTP. Following phenol extraction and ethanol precipitation, the labeled DNA was resuspended in 10 mM Tris, pH 8.0, and 1 mM EDTA. The DNA cleavage assay was done in a reaction mixture (20 μl) containing 40 mM Tris-HCl, pH 7.8, 100 mM KCl, 10 mM MgCl2, 0.5 mM dithiothreitol, 0.5 mM EDTA, 30 μg/ml bovine serum albumin, 20 ng of labeled YEpG DNA, and […] of Aspergillus or human topoisomerase I diluted to various extents. Following incubation at 23° C. for 15 minutes, the reactions were terminated by the addition of SDS (final concentration 1%) and proteinase K (final concentration 200 μg/ml). Proteinase K treatment continued at 37° C. for another 1 hour. The terminated reactions were either alkali-denatured and then loaded (alkaline loading) or loaded directedly in neutral loading buffer (neutral loading) onto a 1% agarose gel in neutral TPE electrophoresis solution. Gel drying and autoradiography were performed as described by Hsiang et al., cited above.

With `N#Cc1ccc2[nH]c(-c3ccc4[nH]c(-c5ccc6[nH]cnc6c5)nc4c3)nc2c1` [Compound 11, 5-Cyano-2-[2'-(benzimidazol-5"-yl)benzimidazol-5'-yl]benzimidazole], the “inhibition (poisoning) of Aspergillus topoisomerase I, in words” value (“inhibition (poisoning)” for short) is “strongly inhibited (poisoned); also recorded: sensitive” and the “sensitivity of Aspergillus versus human topoisomerase I” value was “more active against the Aspergillus than the human enzyme”.
On to `c1ccc(-c2ccc3[nH]c(-c4ccc5[nH]c(-c6ccc7[nH]cnc7c6)nc5c4)nc3c2)cc1` [Compound 13, 5-Phenyl-2-[2'(benzimidazol-5"-yl)benzimidazol-5'-yl]benzimidazole], for which the “inhibition (poisoning)” value was “strongly inhibited (poisoned); also recorded: sensitive” and the “sensitivity of Aspergillus versus human topoisomerase I” value is recorded as “substantially more sensitive”.
Consider `CCOc1ccc(-c2nc3cc(-c4nc5cc(N6CCN(C)CC6)ccc5[nH]4)ccc3[nH]2)cc1` [Hoechst 33342, 2'-(4-ethoxyphenyl)-5-(4-methyl-1-piperazinyl)-2,5'-bi-1H-benzimidazole], for which the “concentration at which extensive DNA cleavage was observed” value was at most 0.1 mg/mL. In addition, the “inhibition (poisoning)” value (listed as Ho33342) is listed as “potent inhibitors; also recorded: selective sensitivity; also recorded: sensitive”. For the same compound, under “Ho33342 10 mg/ml”, the “topoisomerase I-mediated DNA cleavage at the highest concentration” value is “dramatically inhibited”.
With `CC[C@@]1(O)C(=O)OCc2c1cc1n(c2=O)Cc2cc3ccccc3nc2-1` [camptothecin], the “inhibition (poisoning)” value is “potent inhibitors; also recorded: sensitive”; the “concentration at which extensive DNA cleavage was observed” value is at most 1.0 mg/mL; the “sensitivity of Aspergillus versus human topoisomerase I” value was “less active against the Aspergillus than the human enzyme”. The “sensitivity of Aspergillus versus human topoisomerase I” value (listed as CPT) is listed as “less sensitive to CPT than the human enzyme”.
